In paper PMC6383986, “Fragment-Based Covalent Ligand Screening Enables Rapid Discovery of Inhibitors for the RBR E3 Ubiquitin Ligase HOIP” (Journal of the American Chemical Society, 2019):
“Also recorded” adds a separate entry of the source.

Legend:
[1] = biological target: T1, 3 × FLAG-tagged HOIP RBR in HEK293T cells (Homo sapiens, UniProt Q96EP0); experiment: ABPP in-gel fluorescence, competition with TCO probe (15); assay type: cell-based; conditions: 30 μM 7 h pretreatment, then 3 μM (15) 2 h; vs (11i), (17), DMSO
T1 construct: expressed in transfected cells; host or cells: HEK293T, transient, modified pcDNA3.1(+)
Excerpt: PCR purification kit QIAquick Qiagen 28104
Maxiprep Kit Endofree plasmid Maxi Kit Qiagen 12362
E coli Competent DH5α New England C2987H
E coli Competent BL21 GOLD(DE3) Agilent 230132
LDS loading buffer NuPAGE 4× LDS loading buffer Invitrogen NP0008
Trypsin Cell Culture TE Trypsin Gibco R-001-100
Trypsin Sequencing Grade Modified Trypsin Promega V511A
Chymotrypsin Sequencing Grade Chymotrypsin Promega V106A
Cy5-Tetrazine Fluorescent probe for IEDDA click chemistry DC Biosciences CCR-1189-1 Tz-PEG4-Biotin Tetrazine linked biotin Jena Bioscience CLK-027-25
NeutrAvidin beads High capacity NeutrAvidin agarose resin Thermo 29204 […]
5.1 Activity-based protein profiling – In-gel fluorescence […]
HEK293T cells were cultured and transfected with 3×FLAG-tagged HOIP RBR wild type or C885A mutant, or mock as described in section 4.8 above. […] The cells were harvested and lysed (50 mM Tris-HCl, pH 7.5, 1.5 mM MgCl2, 150 mM NaCl, 5% glycerol, 0.8% v/v IGEPAL-CA630, 25 mM NaF, 1 mM Na3VO4, complete protease inhibitor), and the protein concentration was determined by the BCA assay as described in section […]
50 µL. The lysates were incubated at 23 °C, 600 rpm (Eppendorph Thermomixer) for 1 h, then analyzed by SDS PAGE (section 4.5) and in-gel fluorescence (LI-COR) at 700 nm, and by Western Blot as described in section 4.6 (Figure 6E and Supplementary Figures S15, S16). […]

[2] = biological target: T2, 3 × FLAG-tagged HOIP RBR from HEK293T cells (Homo sapiens, UniProt Q96EP0); experiment: Immunoprecipitation and on-bead polyubiquitination assay after in-cell labeling; assay type: cell-based; conditions: 30 μM, E1, UbcH7, ubiquitin
T2 construct: expressed in transfected cells; host or cells: HEK293T, transient, modified pcDNA3.1(+)
Description: Supplementary Figure S12. A) Uncropped SDS gel and B) and Western Blot (FLAG antibody, 1:1000 dilution) from the immunoprecipitation (IP) of 3×FLAG HOIP RBR from HEK293T cells.
The cells had been incubated with compounds (11a) or (11i) [30 µM], or DMSO for 8 h. C) TIC traces for DMSO control, (11a)- and (11i)-treated HEK293T cell lysate after IP and tryptic digest.
D) Extracted TIC traces for the tryptic peptide […], accounting for possible cysteine labelling (iodoacetamide, (11a) or (11i)) and methionine oxidation.
Immunoprecipitation and Polyubiquitination assay
The protein concentrations of the clarified lysates were normalized with reaction buffer (50 mM Tris-HCl, pH 7.5, 1.5 mM MgCl2, 150 mM NaCl, 1 mM Na3VO4, complete protease inhibitor) to 1.5 mg/mL (final volume 500 µL, and <0.1% IGEPAL-CA630). Magnetic beads containing anti-FLAG M2 antibody (20 µL suspension per vial; Merck) were immobilized using a magnetic stand (GE Healthcare), washed with PBS (2 × 0.5 mL) and reaction buffer (2 × 0.5 mL) and then suspended in the lysate mixtures. Beads without lysate was used as control. The bead […]
A polyubiquitination assay master mix was prepared by mixing E1, UbcH7, ubiquitin, MgCl2, in buffer (50 mM HEPES, 150 mM NaCl, pH 7.5). […] All samples were analyzed by SDS PAGE and Western Blot (Figure 6C and Supplementary Figure S13) as described in sections 4.5 and 4.6. […]

T2 sequence (Q96EP0 697-1072): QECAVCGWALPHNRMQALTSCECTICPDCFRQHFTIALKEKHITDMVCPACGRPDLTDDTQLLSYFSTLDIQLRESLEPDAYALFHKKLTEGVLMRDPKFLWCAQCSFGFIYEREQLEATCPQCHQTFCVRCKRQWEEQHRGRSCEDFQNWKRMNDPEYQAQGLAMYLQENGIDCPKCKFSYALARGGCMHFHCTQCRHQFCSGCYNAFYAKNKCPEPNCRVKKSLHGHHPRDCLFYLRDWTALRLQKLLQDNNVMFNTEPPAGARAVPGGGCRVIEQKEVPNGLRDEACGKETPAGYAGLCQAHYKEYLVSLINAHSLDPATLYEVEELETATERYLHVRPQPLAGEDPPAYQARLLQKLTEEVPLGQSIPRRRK
T1 sequence (Q96EP0 697-1072): as above

For COC(=O)/C=C/CNC(=O)c1cc2c([nH]c1=O)CCCC2 [Compound 11a], the “in-gel fluorescence of HOIP RBR labeled by probe (15)” value [1] was “significant reduction of the in-gel fluorescence of HOIP RBR” and the “catalytic activity of HOIP (free polyubiquitin chain formation) after in-cell labeling” value [2] was “significant loss of the catalytic activity; also recorded: significant decrease in free polyubiquitin chain formation”.
